Measurements from patent US20020152038A1, “Selection method for aroma substances” (priority 2000, published 2002).
Where two headings read alike, the source gives them in different places.

Experiments:
[1] = Headspace above the milkshake, SPME-GC, relative partition parameters; type: physicochemical
Method: (§1) The procedure is analogous in all examples.
The example reflects the taste impression which is perceived via the olfactory epithelium, when enjoying a milkshake. The milkshake is prepared as is generally customary. The mixture of 39 aroma substances is incorporated into the abovementioned milk product (1) in an amount of 0.2%. 50 g of this mixture are transferred to a 100 ml Erlenmeyer flask sealed with a septum and left to stand for 2 h at 35° C. with gentle stirring. The headspace above the mixture is extracted over 15 min using solid phase microextraction (SPME). The SPME needle is desorbed in a GC injector, and a gas chromatogram is recorded. […] The analytical results are then used mathematically as described above.

[2] = Headspace above the lemonade, SPME, relative partition parameters; type: physicochemical
Method: as §1
The example reflects the taste impression which is perceived from via the olfactory epithelium, when enjoying a lemonade drink. The mixture of 39 odorants is incorporated into the above-mentioned lemonade drink (1) in an amount of 0.05%. 50 g of the lemonade drink are transferred to a 100 ml Erlenmeyer flask sealed with a septum and left to stand for 2 h at 35° C. with gentle stirring. The headspace above the lemonade is extracted using a SPME over 15 min. […] The analytical results are then used mathematically as described above.

[3] = according to COSMO-RS correlation
[4] = according to COSMO-RS correlation; remark: listed apart in the source
[5] = headspace vs milkshake, 0.2% aroma mixture, 2 h at 35° C., SPME 15 min
[6] = headspace vs lemonade, 0.05% odorant mixture, 2 h at 35° C., SPME 15 min

Compound | Activity (logarithmic partition parameter above a milkshake) [1, 5] | Activity (logarithmic partition parameter above lemonade) [2, 6] | Differences (Activity minus Prediction, milkshake) [3] | Differences (Activity minus Prediction, lemonade) [4] | Activity (logarithmic partition parameter above a milkshake) [1] | Activity (logarithmic partition parameter above lemonade) [2]
CC(=O)O[C@@H]1C[C@H]2CC[C@]1(C)C2(C)C (racemic) [Isobornyl acetate] | 0.707 | 0.994 | 0.480 | 0.587 |  | 
CC(=O)OCc1ccccc1 [Benzyl acetate] | 0.306 | 0.086 | 0.515 | 0.552 |  | 
OCc1ccccc1 [Benzyl alcohol] | −0.819 | −1.955 | −0.391 | −0.783 |  | 
O=C(OCc1ccccc1)c1ccccc1O [Benzyl salicylate] | −3.313 | −3.037 | −1.057 | −0.340 |  | 
C=C1CCC2CC1C2(C)C (stereo not drawn) [Beta-Pinene] | 1.029 | 0.485 | −0.082 | −0.189 |  | 
C=C1C2CCC(C2)C1(C)C (centres unmarked) [Camphene] | 0.985 | 0.465 | −0.169 | −0.226 |  | 
C[C@@H]1CC[C@H]2C(C)(C)[C@H]3C[C@@]12CC[C@@]3(C)O [Cedrol] | −1.077 | −0.895 | −0.025 | 0.196 |  | 
CC(=O)O[C@]1(C)CC[C@@]23C[C@@H]1C(C)(C)[C@@H]2CC[C@H]3C [Cedryl acetate] |  |  |  |  | −1.690 | −1.653
CC(C)=CCCC(C)CCO (centres unmarked) [Citronellol] | 0.199 | 0.044 | 0.138 | 0.207 |  | 
O=c1ccc2ccccc2o1 [Coumarin] |  |  | 0.244 | 0.162 |  | 
CC(=O)OC(C)(C)Cc1ccccc1 [DMBCA, dimethylbenzylcarbinyl acetate] | 0.378 | 0.523 | 0.537 | 0.898 |  | 
CCOC(=O)c1ccccc1C(=O)OCC [Diethyl phthalate] | −1.607 | −1.895 | −0.553 | −1.693 |  | 
C=CC(C)CCCC(C)(C)O (centres unmarked) [Dihydromyrcenol] | 0.432 | 0.334 | 0.135 | 0.513 |  | 
C=CCc1ccc(O)c(OC)c1 [Eugenol] | −0.557 | −0.841 | 0.528 | 0.454 |  | 
CC(C)=CCC/C(C)=C/CO [Geraniol] | −0.053 | −0.413 |  |  |  | 
CCCCCC/C(C=O)=C\c1ccccc1 [Hexylcinnamaldehyde, α] | −1.949 | −1.911 | −0.674 | −0.710 |  | 
CC(CC=O)CCCC(C)(C)O (centres unmarked) [Hydroxycitronellal] | −1.679 | −1.879 | −1.369 | −1.868 |  | 
CC(=O)/C=C/C1C(C)=CCCC1(C)C (stereo not drawn) [Ionone, α, Ionone, alpha] | −0.001 | 0.024 | 0.158 | −0.060 |  | 
CC(=O)/C=C/C1=C(C)CCCC1(C)C [Ionone, β, Ionone, beta] | −0.154 | −0.061 | 0.047 | 0.072 |  | 
CC(C)CCOC(=O)c1ccccc1O [Isoamyl salicylate] | −0.528 | −0.462 | 0.215 | 0.201 |  | 
CC(C=O)Cc1ccc(C(C)(C)C)cc1 (centres unmarked) [Lilial] | −0.690 | −0.656 | 0.135 | 0.074 |  | 
C=C(C)[C@H]1CC=C(C)CC1 [Limonene D] | 1.088 | 0.925 | −0.090 | 0.072 |  | 
C=CC(C)(O)CCC=C(C)C (centres unmarked) [Linalool] | 0.225 | 0.141 | −0.231 | 0.246 |  | 
OCCc1ccccc1 [PEA, phenylethyl alcohol] | 0.188 | 0.001 | 0.225 | 0.272 |  | 
CC(=O)OCC=C(C)C [Prenyl acetate] | 0.413 | 0.151 | −0.864 | −1.038 |  | 
CC(=O)OC(C)c1ccccc1 (centres unmarked) [Styrolyl acetate] | 0.402 | 0.312 | 0.554 | 0.641 |  | 
CC(=O)OC(C)(C)C1CC=C(C)CC1 (centres unmarked) [Terpinyl acetate] |  |  |  |  | 0.418 | 0.644
CC1=CCC2CC1C2(C)C (stereo not drawn) [alpha-Pinene] | 1.078 | 0.363 | 0.067 | −0.110 |  | 
CC1=CCC(C(C)C)=CC1 [gamma-Terpinene] | 1.064 | 1.032 | −0.004 | 0.411 |  | 
Caryophyllene |  |  |  |  | 1.132 | 0.827
